This passage reports IC50, Ratio IC50 and Activity results from ChEMBL document CHEMBL1158192, “Niruriside, a new HIV REV/RRE binding inhibitor from Phyllanthus niruri” (J Nat Prod, 1996).

Experiment [1] can be described thus: Inhibition of HIV1 REV protein binding to HIV1 [P33]RRE RNA by liquid scintillation assay. On the set-up: species or system Human immunodeficiency virus 1.
The nature of experiment [2]: Inhibition of R17 coat protein binding to [33P]labeled R17 operator RNA.
Experiment [3] can be described thus: Ratio of IC50 for R17 activity to IC50 for HIV1 Rev activity.
The test system of experiment [4] is Human immunodeficiency virus 1. Nature of the experiment: Antiviral activity against HIV1 RF in CEM-SS cells assessed as cell protection against virus infection up to 260 uM by XTT assay. In kind it is functional, organism-based.

In general, IC50 refers to the concentration needed to halve the response being measured.

The source made the active and inactive calls. No cut-off for these calls is given here.

Consider `CC(=O)OC[C@H]1O[C@H](O[C@]2(COC(C)=O)O[C@H](COC(=O)/C=C/c3ccccc3)[C@@H](O)[C@@H]2OC(=O)/C=C/c2ccccc2)[C@H](OC(C)=O)[C@@H](O)[C@@H]1OC(C)=O` [NIRURIDE], for which the IC50 is 3.3 µM in experiment [1] and above 130 µM in experiment [2]. In experiment [3], the Ratio IC50 was above 40. Also, the outcome in experiment [4] was inactive.
